Results taken from patent US5248690A, “Method for treatment of neurodegenerative diseases” (R. J. Reynolds Tobacco Company, priority 1992, dated 1993).
pKi: −log10 of the molar value.

Molecular target: high affinity nicotinic receptors
Experiment: Inhibition of L-[3H]nicotine binding to mouse brain membrane preparations
Set-up: species or system Mice (DBA strain)
Settings: 10 nM L-[3H]nicotine, 2 hr at 4° C., mouse brain membranes, Ki calculated from IC50 by method of Cheng et al.
Description: Mice (DBA strain) were maintained on a 12 hour light/dark cycle and were allowed free access to water and food supplied by Wayne Lab Blox, Madison, Wis. Animals used in the present studies were 60 to 90 days of age and weighed 20 to 25 g. Brain membrane preparations were obtained from pooled brain tissue of both males and females.
Mice were killed by cervical dislocation. Brains were removed and placed on an ice-cold platform. […] Protein was determined by the method of Lowry, et al., J. Biol. Chem., Vol. 193, pp. 265-275 (1951), using bovine serum albumin as the standard.
The binding of L-[^3 H]nicotine was measured using a modification of the method of Romano, et al., Science, Vol. 210, pp. 647-650 (1980) as described previously by Marks, et al., Mol. pharmacol., Vol. 30, pp. 427-436 (1986). The binding of L-[^3 H]nicotine was measured using a 2 hr. incubation at 4° C. […] Nonspecific binding was determined by inclusion of 10 μM nonradioactive nicotine in the incubations. The inhibition of L-[^3 H]nicotine binding by test compounds was determined by including one of eight different concentrations of the test compound in the incubation. […] Inhibition constants (Ki values) were calculated from the IC50 values using the method of Cheng, et al., Biochem. Pharmacol., Vol. 22, pp. 3099-3108 (1973). […]

Q: `CN1CCCC1c1ccccc1` (racemic) [1-methyl-2-phenylpyrrolidine] was tested. Which pKi did it give?
A: Its pKi is 5.46.
